Experimental data as given in patent publication US12006321B2, “Substituted pyrazolo[1,5-a]pyrimidines as apelin receptor agonists” (Sanford Burnham Prebys Medical Discovery Institute, priority 2017, dated 2024).
pEC50: −log10 of the molar value.

biological target: T1, human apelin receptor (APJ, APLNR) (Homo sapiens, UniProt P35414); assay: cell-based cAMP assay (TR-FRET) in Chinese hamster ovary cells expressing the apelin receptor; details: EC50 = 50% of control (apelin-13, 1 nM) response; cAMP in CHO cells, 0.5 h incubation; read-out: Potency Category
T1 construct: host or cells: Chinese hamster ovary (CHO) cells, stably integrated receptor
T1 sequence (P35414 1-380): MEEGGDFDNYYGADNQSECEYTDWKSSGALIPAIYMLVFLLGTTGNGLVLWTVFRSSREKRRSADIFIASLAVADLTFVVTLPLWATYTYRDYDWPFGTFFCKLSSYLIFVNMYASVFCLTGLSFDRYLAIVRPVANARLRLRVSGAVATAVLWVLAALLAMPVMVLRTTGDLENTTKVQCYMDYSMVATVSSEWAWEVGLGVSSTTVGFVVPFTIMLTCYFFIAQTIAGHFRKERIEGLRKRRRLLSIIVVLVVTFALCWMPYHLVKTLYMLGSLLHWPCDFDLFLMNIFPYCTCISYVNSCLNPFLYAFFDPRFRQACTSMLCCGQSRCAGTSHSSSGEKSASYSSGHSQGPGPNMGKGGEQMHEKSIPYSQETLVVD
Protocol: This example illustrates the biological activity of various compounds tested against the APJ receptor.
Commercially available cell lines were used to screen chemical libraries to identify compounds that potently and selectively activated the human apelin receptor. The assays disclosed herein were performed using cell lines from DiscoveX, Inc.
Biological activity was determined to the cell-based assay. This assay detects activation of the receptor by reporting on intracellular cyclic adenosine monophosphate (cAMP) level. Chinese hamster ovary cells engineered to express the stably integrated human appellant receptor (APJ, AGTRL-one, APLNR), pleaded into the wells of the microtiter plate. Cells were stimulated with […] to increase intracellular cyclic AMP. Immediately following, compounds were added to the range of final concentrations 0.0-100 μM, in DMSO (not to exceed a final DMSO concentration greater than 1% v/v), and allowed to incubate with the cells for 0.5 h. At the end of the incubation, cells were lysed to stop APJ signaling and cAMP was quantified using a commercially available competitive immunoassay kit that applies homogenous time-resolved florescence energy transfer (TR-FRET). The assay is based on the competition between a europium (Eu) chelate-labeled cAMP donor tracer and cellular cAMP for binding sites on a cAMP-specific monoclonal antibody labeled with an acceptor fluorophore. When antibodies are bound to the cAMP tracer light emissions at 320 nm stimulate the energy transfer from the donor to the acceptor, which in turn emits light at 665 nm. In the presence of competitive unlabeled cAMP (derived from the activity of the receptor or forskolin-stimulated production of cAMP), the labelled cAMP tracer is dissociated from the cAMP antibody, resulting in a loss of FRET signal. The amount of light emitted by the FRET is inversely proportional to the cAMP generated by the cell/receptor system. Potency and efficacy at APJ are reported in reference to the canonical APJ receptor agonist apelin-13 when tested at 1 nM.
Compound competency is reported as the effective concentration required to effect 50% (EC 50) of the control (apelin—13, 1 nM) response in micromole are (μM) units. Compound efficacy (% response) is reported as a percentage of the maximal apein-13 response at 1 nM (control). Potencies were calculated by fitting a four-point logistic curve to concentration response consisting of at least 10 discrete data points spanning effective range of the compounds in the cell-based assay that measures cAMP. In Table 1, the Potency Categories are A, B, C and D. Category A EC50>500 nM; Category B 200<EC50<500 nM; Category C 100<EC50<200 nM; Category D<100 nM.

| pEC50 | Compound |
| --- | --- |
| < 6.30 | Cc1ccc(-c2c(C)nn3c(C(C)C)cc(C(=O)O)nc23)c(C)c1 [Compound 45, 3-(2,4-dimethylphenyl)-2-methyl-7-(methylethyl)-8-hydropyrazolo[1,5-a]pyrimidine-5-carboxylic acid] |
| < 6.30 | CCOC(=O)c1cc(C(C)C)n2nc(C)c(-c3c(C)cc(OC)cc3C)c2n1 [Compound 46, ethyl 3-(4-methoxy-2,6-dimethylphenyl)-2-methyl-7-(methylethyl)-8-hydropyrazolo[1,5-a]pyrimidine-5-carboxylate] |
| < 6.30 | CCOC(=O)c1cc(C(C)C)n2nc(C)c(-c3c(C)cc(F)cc3C)c2n1 [Compound 47, ethyl 3-(4-fluoro-2,6-dimethylphenyl)-2-methyl-7-(methylethyl)-8-hydropyrazolo[1,5-a]pyrimidine-5-carboxylate] |
| < 6.30 | COc1cc(C)c(-c2c(C)nn3c(C(C)C)cc(C(=O)O)nc23)c(C)c1 [Compound 48, 3-(4-methoxy-2,6-dimethylphenyl)-2-methyl-7-(methylethyl)-8-hydropyrazolo[1,5-a]pyrimidine-5-carboxylic acid] |
| < 6.30 | CCOC(=O)c1cc(C(C)C)n2nc(C)c(-c3c(C)cccc3F)c2n1 [Compound 49, ethyl 3-(6-fluoro-2-methylphenyl)-2-methyl-7-(methylethyl)-8-hydropyrazolo[1,5-a]pyrimidine-5-carboxylate] |
| 6.70 to 7.00 | Cc1cc(F)cc(C)c1-c1c(C)nn2c(C(C)C)cc(C(=O)O)nc12 [Compound 50, 3-(4-fluoro-2,6-dimethylphenyl)-2-methyl-7-(methylethyl)-8-hydropyrazolo[1,5-a]pyrimidine-5-carboxylic acid] |
| 6.30 to 6.70 | Cc1cccc(F)c1-c1c(C)nn2c(C(C)C)cc(C(=O)O)nc12 [Compound 51, 3-(6-fluoro-2-methylphenyl)-2-methyl-7-(methylethyl)-8-hydropyrazolo[1,5-a]pyrimidine-5-carboxylic acid] |
| < 6.30 | CCOC(=O)c1cc(C(C)C)n2ncc(-c3c(C)cccc3C)c2n1 [Compound 52, ethyl 3-(2,6-dimethylphenyl)-7-(methylethyl)-8-hydropyrazolo[1,5-a]pyrimidine-5-carboxylate] |
| < 6.30 | Cc1cccc(C)c1-c1cnn2c(C(C)C)cc(C(=O)O)nc12 [Compound 53, 3-(2,6-dimethylphenyl)-7-(methylethyl)-8-hydropyrazolo[1,5-a]pyrimidine-5-carboxylic acid] |
| < 6.30 | CCCc1c(C)c(C(=O)OCC)nc2c(-c3c(C)cccc3C)c(C)nn12 [Compound 54] |
| < 6.30 | CCCc1cc(C(=O)O)nc2c(-c3c(C)cccc3C)c(C)nn12 [Compound 55, 3-(2,6-dimethylphenyl)-2-methyl-7-propyl-8-hydropyrazolo[1,5-a]pyrimidine-5-carboxylic acid] |
| < 6.30 | CCOC(=O)c1cc(C)n2nc(C)c(-c3c(C)cccc3C)c2n1 [Compound 56, ethyl 3-(2,6-dimethylphenyl)-2,7-dimethyl-8-hydropyrazolo[1,5-a]pyrimidine-5-carboxylate] |
| < 6.30 | Cc1cccc(C)c1-c1c(C)nn2c(C)cc(C(=O)O)nc12 [Compound 57, 3-(2,6-dimethylphenyl)-2,7-dimethyl-8-hydropyrazolo[1,5-a]pyrimidine-5-carboxylic acid] |
| < 6.30 | CCOC(=O)c1cc(CC)n2nc(C)c(-c3c(C)cccc3C)c2n1 [Compound 58, ethyl 3-(2,6-dimethylphenyl)-7-ethyl-2-methyl-8-hydropyrazolo[1,5-a]pyrimidine-5-carboxylate] |
| < 6.30 | CCOC(=O)c1cc(C2CC2)n2nc(C)c(-c3c(C)cccc3C)c2n1 [Compound 59, ethyl 3-(2,6-dimethylphenyl)-7-cyclopropyl-2-methyl-8-hydropyrazolo[1,5-a]pyrimidine-5-carboxylate] |

Second part, the compound before the results:

| Compound | pEC50 |
| --- | --- |
| COc1ccccc1-c1c(C)nn2c(C(C)C)cc(C(=O)O)nc12 [Compound 31, 3-(2-methoxyphenyl)-2-methyl-7-(methylethyl)-8-hydropyrazolo[1,5-a]pyrimidine-5-carboxylic acid] | < 6.30 |
| Cc1nn2c(C(C)C)cc(C(=O)O)nc2c1-c1cccc(Cl)c1 [Compound 32, 3-(3-chlorophenyl)-2-methyl-7-(methylethyl)-8-hydropyrazolo[1,5-a]pyrimidine-5-carboxylic acid] | < 6.30 |
| CCOC(=O)c1cc(CC)n2nc(C)c(-c3ccccc3)c2n1 [Compound 33, ethyl 7-ethyl-2-methyl-3-phenyl-8-hydropyrazolo[1,5-a]pyrimidine-5-carboxylate] | < 6.30 |
| CCc1cc(C(=O)O)nc2c(-c3ccccc3)c(C)nn12 [Compound 34, 7-ethyl-2-methyl-3-phenyl-8-hydropyrazolo[1,5-a]pyrimidine-5-carboxylic acid] | < 6.30 |
| CCCc1cc(C(=O)OCC)nc2c(-c3ccccc3)c(C)nn12 [Compound 35, ethyl 2-methyl-3-phenyl-7-propyl-8-hydropyrazolo[1,5-a]pyrimidine-5-carboxylate] | < 6.30 |
| CCCc1cc(C(=O)O)nc2c(-c3ccccc3)c(C)nn12 [Compound 36, 2-methyl-3-phenyl-7-propyl-8-hydropyrazolo[1,5-a]pyrimidine-5-carboxylic acid] | < 6.30 |
| COC(=O)c1nc2c(-c3ccccc3)c(C)nn2c(C(C)C)c1C [Compound 37, methyl 2,6-dimethyl-7-(methylethyl)-3-phenyl-8-hydropyrazolo[1,5-a]pyrimidine-5-carboxylate] | < 6.30 |
| Cc1nn2c(C(C)C)c(C)c(C(=O)O)nc2c1-c1ccccc1 [Compound 38, 2,6-dimethyl-7-(methylethyl)-3-phenyl-8-hydropyrazolo[1,5-a]pyrimidine-5-carboxylic acid] | < 6.30 |
| CCOC(=O)c1cc(C(C)C)n2nc(C)c(-c3c(C)cccc3C)c2n1 [Compound 39, ethyl 3-(2,6-dimethylphenyl)-2-methyl-7-(methylethyl)-8-hydropyrazolo[1,5-a]pyrimidine-5-carboxylate] | < 6.30 |
| CCOC(=O)c1cc(C(C)C)n2nc(C)c(-c3c(OC)cccc3OC)c2n1 [Compound 40, ethyl 3-(2,6-dimethoxyphenyl)-2-methyl-7-(methylethyl)-8-hydropyrazolo[1,5-a]pyrimidine-5-carboxylate] | < 6.30 |
| Cc1cccc(C)c1-c1c(C)nn2c(C(C)C)cc(C(=O)O)nc12 [Compound 41, 3-(2,6-dimethylphenyl)-2-methyl-7-(methylethyl)-8-hydropyrazolo[1,5-a]pyrimidine-5-carboxylic acid] | > 7.00 |
| COc1cccc(OC)c1-c1c(C)nn2c(C(C)C)cc(C(=O)O)nc12 [Compound 42, 3-(2,6-dimethoxyphenyl)-2-methyl-7-(methylethyl)-8-hydropyrazolo[1,5-a]pyrimidine-5-carboxylic acid] | < 6.30 |
| CC(C)c1cc(C(=O)O)nc2c3c(nn12)CCCC3 [Compound 43, 4-(methylethyl)-5,7,8,9,10-pentahydro-5H-pyrimidino[1,2-b]indazole-2-carboxylic acid] | < 6.30 |
| CCOC(=O)c1cc(C(C)C)n2nc(C)c(-c3ccc(C)cc3C)c2n1 [Compound 44, ethyl 3-(2,4-dimethylphenyl)-2-methyl-7-(methylethyl)-8-hydropyrazolo[1,5-a]pyrimidine-5-carboxylate] | < 6.30 |
